Patent publication US10596160B2, “Compositions, methods and uses for the treatment of diabetes and related conditions by controlling blood glucose level” (PHARNEXT, priority 2012, dated 2020)

Key:
hepatocytes = assay: Glucose production by hepatic cells; assay type: cell-based, rat; details: long-term, 0.01 μM (10 nM)
Procedure: Hepatocytes are isolated from 24 h-fasted male Wistar rats (200-250 g body weight) by ex situ liver perfusion in the presence of collagenase. Cell viability is validated by a trypan blue exclusion test. […] After plating, the medium is removed and cells are cultured for 16 h in RPMI medium without glucose (supplemented with the tested drugs for long-term evaluation). The following day, hepatic glucose production is assessed in Krebs-Ringer Bicarbonate HEPES buffer (KRBH; pH 7.4) in the presence of the neoglucogenic substrates (lactate 10 mM and pyruvate 1 mM) and the tested molecules for 4 h (short-term).
Supernatants are collected and glucose concentrations are determined using a glucose oxidase kit (Instrumentation Laboratory 0018250840). In parallel, protein quantification is performed using the colorimetric Lowry method.
Results are expressed in nmol glucose/mg protein and % of control condition (KLP: KRBH containing lactate and pyruvate).

[1] = system: TNFα-induced insulin resistant 3T3-L1 differentiated adipocytes; assay: Glucose uptake in TNFα-induced insulin resistant 3T3-L1 differentiated adipocytes; assay type: cell-based; details: for enhancement of glucose uptake: drug alone, vs non-treated insulin-resistant cells (TNFα); for enhancement of glucose uptake, combination with metformin: ifenprodil 3.3 nM and metformin 100 μM, combined or alone at the same concentrations
Procedure: 3T3L1 fibroblasts were maintained in DMEM 4.5 g/L glucose supplemented with 5% calf serum donor, 5% newborn calf serum, 100 U/mL penicillin, and 100 μg/mL streptomycin at 37° C. under a 10% CO2 atmosphere. Cells were grown on 24-well plates at a density of 2560 cells/well in 0.5 mL of growth medium (DMEM 4.5 g/L glucose supplemented with 10% FCS, 100 U/mL penicillin, and 100 μg/mL streptomycin). […] Fresh media were replaced after two days.
Glucose uptake was measured by quantification of incorporated radiolabeled glucose, after an incubation step with 2-deoxy-D[1,2^3H] glucose for 5 min. Glucose uptake was arrested by two washing steps in ice-cold PBS 1×, then were solubilized in 0.1N NaOH for 30 min. Cell-associated radioactivity was then counted using a MicroBeta counter after adding 600 μL per well of scintillant (Optiphase SuperMix3).
In parallel, protein quantification was determined by a colorimetric assay derived from the Lowry method. Results are expressed in nmol of glucose incorporated/5 mn/mg of protein and in % of control or basal condition (100%).

[2] = system: beta pancreatic INS-1 cells; assay: Prevention of beta cells apoptosis (ssDNA apoptosis detection kit); assay type: cell-based; parameters: concentration or dose not given beside the values; details: 1 h pre-incubation then 24 h in apoptotic conditions, drugs tested alone
Procedure: The beta pancreatic INS-1 cells have been selected for this study. The cells are cultured in complete medium, RPMI 1640 10 mM glucose supplemented with 1 mM sodium pyruvate, 50 μM 2-mercaptoethanol, 2 mM glutamine, 10 mM HEPES, 100 IU/mL penicillin, 100 μg/mL streptomycin and 10% heat-inactivated fetal calf serum (FCS), as described by Asfari et al. (23). INS-1 cells are plated (4.5×10^4 cells/well) in 96-well poly-ornithine coated plates and cultured at 37° C. in a humidified atmosphere of 95% air/5% CO2. The day after, cells are pre-incubated with the tested molecules for 1 h. Then, after a medium change, cells are cultured for 24 h in a medium containing the tested molecules and 30 mM glucose, 0.05 mM myristic acid, 25 ng/mL INF, 25 ng/mL TNF and 5 ng/mL IL.
The efficacy of compounds to prevent apoptosis is then evaluated by the highly specific apoptosis detection kit from Chemicon (Ref. APT225). This procedure is based on the detection of single-stranded DNA (ssDNA) which is a specific marker of apoptotic cells (24).
Results are expressed in optical density (OD) arbitrary unit and % of reduction of the apoptosis induced by apoptotic condition. Following a Dunnett t-test, all compounds showing a significant decrease in % of apoptotic cells compared to apoptotic control conditions are considered active.

[3] = system: human primary diabetic myotubes; assay: Glucose uptake in human diabetic myotube primary cultures; assay type: cell-based; details: myotubes from a diabetic patient, 24 h pre-treatment
Procedure: The myotubes from a diabetic patient were grown on HAM's F10-based media (Sigma, ref. N6908) supplemented with 15% of fetal bovine serum, 1 mM glutamine.
Myoblasts were seeded at 380,000 cells/well in 12-well plates. After 2 days of proliferation, the cells were placed in reduced serum conditions (2% horse serum) to induce differentiation. The myotubes were used after 5 days of differentiation.
Dulbecco's modified Eagle's medium (DMEM)-based media (Gibco, ref. 31053-028) supplemented with 2% heat-inactivated horse serum, 2% Glutamax (Gibco, ref. 35050) and washed for glucose uptake assays. Compounds were dissolved in DMSO to reach the desired final concentration prior to use.
The differentiated myotubes were treated for 24 h with the compositions of the invention before the assay.
Before the initiation of glucose uptake, the cells were deprived of serum and glucose. A deprivation was first performed in DMEM media containing reduced glucose (1 g/L) and no serum. After adding the compounds at the desired concentrations, the cells were incubated at 37° C. during 2 h30. […] A subsequent glucose and serum deprivation was performed in HBS buffer at 37° C. for 2 hours. The cells were treated with a mixture of 2-[^3H]deoxyglucose 10 Ci/mM+2-deoxy-D-glucose at 10 μM for 30 min. […] The cell lysates were transferred into scintillation vials for the measurement of radioactivity with a MicroBeta counter.

CC(C(O)c1ccc(O)cc1)N1CCC(Cc2ccccc2)CC1 (stereo not shown) [ifenprodil]
reduction of glucose production (hepatocytes): −22%
enhancement of glucose uptake ([1]; 10 nM): improvement
enhancement of glucose uptake ([1]; 100 nM): improvement
enhancement of glucose uptake ([1]; 1 μM): +140%
enhancement of glucose uptake, combination experiment ([1]; drugs combined at a dose as low as 3.3 nM, or used individually, vs TNFα cells, Dunnett's test): No significant effect
enhancement of glucose uptake, combination with metformin ([1]; vs TNFα cells): No significant effect
enhancement of glucose uptake, combination with metformin ([1]; vs TNFα cells, listed as Ifenprodil): does not lead to any significant improvement
Percentage of apoptosis reduction [2]: 54%
enhancement of glucose uptake ([3]; 0.1 μM): improvement
enhancement of glucose uptake ([3]; 1 μM): improvement
